The values below are quoted from earlier work in patent US20260355228A1, “TREATMENT OF FAMILIAL ADENOMATOUS POLYOPSIS USING A 13-MEMBERED MACROLIDE” (ZIKANI THERAPEUTICS, INC., priority 2022, published 2026).

For data set [1], the system named is FAP patients harboring APC nonsense mutations. The settings on record: clinical study, FAP patients [25].
Data set [2] relates to APC gene nonsense mutations in colorectal cancer cell lines. Particulars: colorectal cancer cell lines [23, 24].
The next data set relates to mouse model of FAP. The settings on record: mouse model of FAP [23, 24].
Data set [3] concerns human colorectal xenografts possessing APC nonsense mutations. Particulars: xenografts possessing APC nonsense mutations [23, 24].
In data set [4] the test system is APC gene nonsense mutations in in vivo colon carcinoma models. The settings on record: in vivo colon carcinoma models [23].
The subject of data set [5] is APC (SW1417 colon carcinoma cells). The settings on record: SW1417 cells [23].
The next data set deals with APC L360X stop codon. The settings on record: luciferase based reporter vector [40].

For the compound `CC[C@H]1OC(=O)[C@H](C)[C@@H](O[C@H]2C[C@@](C)(OC)[C@@H](O)[C@H](C)O2)[C@H](C)[C@@H](O[C@@H]2O[C@H](C)C[C@H](N(C)C)[C@H]2O)[C@](C)(O)C[C@@H](C)C(=O)[C@H](C)[C@@H](O)[C@]1(C)O` [erythromycin], the adenoma burden entry in data set [1] is given as “decrease in adenoma burden”. In data set [2], the “suppression of nonsense mutations / translation termination in the APC gene” value is “suppressed nonsense mutations in the APC gene in human colon carcinoma cells”. Further, the “number of intestinal polyps” value in the data set with mouse model of FAP was “reduced the number of intestinal polyps”. Further, in data set [3], the “in vivo growth of human colorectal xenografts” value was “inhibited the in vivo growth of human colorectal xenografts”.
For `CC[C@H]1OC(=O)C[C@@H](O)[C@H](C)[C@@H](O[C@@H]2O[C@H](C)[C@@H](O[C@H]3C[C@@](C)(O)[C@@H](O)[C@H](C)O3)[C@H](N(C)C)[C@H]2O)[C@@H](CC=O)C[C@@H](C)C(=O)/C=C/C(C)=C/[C@@H]1CO[C@@H]1O[C@H](C)[C@@H](O)[C@@H](OC)[C@H]1OC` [tylosin], the “suppression of translation termination generated by nonsense mutations in the APC gene” value in data set [4] was “can suppress translation termination generated by nonsense mutations in the APC gene”. Besides, the “read-through of the nonsense mutation leading to synthesis of full-length, active APC protein” value in data set [5] was “low level of full-length, active APC protein”. In data set [2], the “suppression of nonsense mutations / translation termination in the APC gene” value is listed as “can suppress translation termination generated by nonsense mutations in the APC gene”.
gentamicin: in data set [2], the “suppression of nonsense mutations / translation termination in the APC gene” value is given as “suppressed nonsense mutations in the APC gene in human colon carcinoma cells”. In addition, the “number of intestinal polyps” value in the data set with mouse model of FAP is reported as “reduced the number of intestinal polyps”. In addition, the “in vivo growth of human colorectal xenografts” value in data set [3] is “inhibited the in vivo growth of human colorectal xenografts”. For the same compound, the “susceptibility of the L360X stop codon to read-through” value in the data set on APC L360X stop codon is “most susceptible”.
